# Tests used:
# Test in all cases: relative viability (nuclei count vs DMSO), 5 days (fraction); higher = more cells survive
# Imatinib + Navitoclax = compound: Cc1ccc(NC(=O)c2ccc(CN3CCN(C)CC3)cc2)cc1Nc1nccc(-c2cccnc2)n1 [Imatinib] + CC1(C)CCC(c2ccc(Cl)cc2)=C(CN2CCN(c3ccc(C(=O)NS(=O)(=O)c4ccc(N[C@H](CCN5CCOCC5)CSc5ccccc5)c(S(=O)(=O)C(F)(F)F)c4)cc3)CC2)C1 [Navitoclax] (partner 0.5 µM)
# Summary of the method: (§1)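 Relative viability was taken as the ratio of nuclei in treated wells to nuclei in vehicle wells. Lung cancer cell lines in 1536-well plates received compounds by pin tool one day after seeding, either one drug alone or a fixed anchor-drug dose plus five library-drug doses (not always all listed) in √10 steps. Nuclei were counted on 4× images after 5 days of treatment, and values are medians of duplicate plates.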
# Imatinib + Linsitinib = compound: Cc1ccc(NC(=O)c2ccc(CN3CCN(C)CC3)cc2)cc1Nc1nccc(-c2cccnc2)n1 [Imatinib] + C[C@]1(O)C[C@@H](c2nc(-c3ccc4ccc(-c5ccccc5)nc4c3)c3c(N)nccn32)C1 [Linsitinib] (partner 1 µM)
# Summary of the method: as §1
# Imatinib + Pemetrexed = compound: Cc1ccc(NC(=O)c2ccc(CN3CCN(C)CC3)cc2)cc1Nc1nccc(-c2cccnc2)n1 [Imatinib] + Nc1nc2[nH]cc(CCc3ccc(C(=O)N[C@@H](CCC(=O)O)C(=O)O)cc3)c2c(=O)[nH]1 [Pemetrexed] (partner 0.2 µM)
# Summary of the method: as §1
# Imatinib + Olaparib = compound: Cc1ccc(NC(=O)c2ccc(CN3CCN(C)CC3)cc2)cc1Nc1nccc(-c2cccnc2)n1 [Imatinib] + O=C(c1cc(Cc2n[nH]c(=O)c3ccccc23)ccc1F)N1CCN(C(=O)C2CC2)CC1 [Olaparib] (partner 8 µM)
# Summary of the method: as §1
Cell Line,relative viability (Imatinib + Navitoclax; first compound 0.02 µM),relative viability (Imatinib + Navitoclax; first compound 0.2 µM),relative viability (Imatinib + Navitoclax; first compound 0.6325 µM),relative viability (Imatinib + Navitoclax; first compound 2 µM),relative viability (Imatinib + Linsitinib; first compound 0.02 µM),relative viability (Imatinib + Linsitinib; first compound 0.2 µM),relative viability (Imatinib + Linsitinib; first compound 0.6325 µM),relative viability (Imatinib + Linsitinib; first compound 2 µM),relative viability (Imatinib + Pemetrexed; first compound 0.02 µM),relative viability (Imatinib + Pemetrexed; first compound 0.06325 µM),relative viability (Imatinib + Pemetrexed; first compound 0.2 µM),relative viability (Imatinib + Pemetrexed; first compound 0.6325 µM),relative viability (Imatinib + Pemetrexed; first compound 2 µM),relative viability (Imatinib + Olaparib; first compound 0.02 µM),relative viability (Imatinib + Olaparib; first compound 0.06325 µM),relative viability (Imatinib + Olaparib; first compound 0.2 µM),relative viability (Imatinib + Olaparib; first compound 0.6325 µM),relative viability (Imatinib + Olaparib; first compound 2 µM),relative viability (Imatinib + Navitoclax; first compound 0.06325 µM),relative viability (Imatinib + Linsitinib; first compound 0.06325 µM)
201T,1.24,1.19,1.2,1.18,1.03,1.03,1.03,0.957,0.317,0.24,0.391,0.284,0.31,0.879,0.873,0.845,0.814,0.836,–,–
A-427,1.05,0.998,0.945,0.949,1.11,1.11,1.17,1.08,1.05,1.08,1.02,–,0.971,0.797,–,0.754,0.715,0.748,–,–
ABC-1,–,–,–,–,0.727,0.778,0.849,0.779,–,–,–,–,–,1,–,0.732,0.785,0.581,–,–
BEN,0.0684,0.0665,0.0553,0.0529,0.908,0.921,0.837,0.969,0.832,0.835,0.691,0.89,0.879,1.2,1.14,1.01,1.08,1.06,0.0589,0.785
CAL-12T,1.44,1.21,1.38,0.974,0.908,0.996,0.982,0.788,1.35,1.33,1.25,1.32,1.28,0.756,–,0.735,0.634,0.77,1.32,0.877
COR-L23,1.11,1.5,1.04,1.03,1.14,1.18,0.895,1.04,0.196,0.206,0.209,0.196,0.159,0.394,0.367,0.363,0.383,0.308,1.32,1.01
COR-L 105,1.01,0.756,0.743,0.605,1.08,1,1.02,0.978,1.33,1.27,1.13,1.06,0.983,0.873,0.663,0.678,0.724,0.665,0.879,1.14
ChaGo-K-1,1.04,–,1.37,1.09,–,–,–,–,0.263,–,0.255,0.268,0.251,0.389,–,0.394,0.42,0.45,0.927,–
EBC-1,0.398,0.382,0.327,0.379,1.18,1.07,1.04,0.818,–,–,–,–,–,0.776,0.719,0.728,0.68,0.573,0.399,0.974
EKVX,1.18,0.983,0.929,0.973,1.09,0.968,1.02,1.12,0.442,–,0.509,0.391,–,1.05,–,1.12,0.923,–,0.859,–
EMC-BAC-2,1.18,1.31,1.24,1.22,0.845,0.889,0.767,0.868,0.443,0.483,0.447,0.507,0.424,0.465,0.551,0.474,0.592,0.486,1.49,0.961
EPLC-272H,1.22,1.12,1.11,1.06,1.28,1.24,1.23,1.02,0.261,–,–,0.328,0.336,0.669,–,–,0.795,0.732,–,–
H3255,0.512,0.44,0.497,0.548,1.06,0.877,0.965,0.998,0.536,0.499,0.554,0.565,0.573,0.576,0.572,0.565,0.566,0.612,0.441,0.921
HARA,1.19,1.15,1.17,1.16,1.16,1.05,0.994,0.969,0.256,0.235,0.23,0.286,0.227,0.408,0.568,–,0.896,0.68,1.18,0.906
HCC-15,0.736,0.764,0.722,0.709,0.82,0.926,–,0.867,0.225,0.234,0.236,0.218,0.211,0.773,–,0.719,0.791,0.742,0.522,0.917
HCC-44,1.11,1.03,0.858,0.866,0.801,0.664,0.549,0.646,0.653,–,0.68,0.671,0.544,0.956,–,–,1.02,0.967,1.05,–
HCC-78,0.725,0.823,0.7,0.818,0.444,0.563,0.524,0.576,0.865,0.955,0.949,0.916,0.882,0.564,0.688,1.09,0.885,0.999,0.62,0.528
HCC-366,1.02,1.13,1.09,1.07,0.685,1.02,0.692,0.844,0.178,0.197,0.189,0.173,0.128,0.427,0.336,0.389,0.335,0.346,–,–
